Measurements reported in patent publication US11267824B2, “Inhibitors of indoleamine 2,3-dioxygenase and/or tryptophan 2,3-dioxygenase” (IDORSIA PHARMACEUTICALS LTD, priority 2017, dated 2022).

Experiments:
[1] = target: Recombinant full-length human IDO1 (Homo sapiens (Human), UniProt P14902); test: IDO1 enzymatic assay (IDO inhibitory activity); type: biochemical; settings: 2 nM enzyme, 5 μM L-tryptophan, pH6.5, 30 min pre-incubation, NFK quantified by LCMS; mean values if measured multiple times; read-out: hIDO activity (IC50 in nM)
Protocol: 1) Testing Compounds for IDO Inhibitory Activity in an IDO1 Enzymatic Assay:
Recombinant full-length human IDO1 with a N-terminal hexahistidine tag expressed in E. coli and purified to homogeneity is incubated at a final concentration of 2 nM in assay buffer consisting of 37.5 mM phosphate buffer at pH6.5 supplemented with 10 mM sodium L-ascorbate, 0.45 μM methylene blue, 50 U/ml catalase, 0.01% BSA, and 0.01% Tween 20 (protocol modified from Seegers et al, JBS 2014). Example compounds are serially diluted in DMSO, further diluted in phosphate buffer, and added to the enzyme at final concentrations ranging from 10 μM to 0.5 nM. The final DMSO concentration is 0.6%. Following a pre-incubation of 30 minutes at RT, the reaction is started by the addition of L-tryptophan at a final concentration of 5 μM in assay buffer. After 30 minutes of incubation at RT, 3 μL of the reaction mixture are transferred to a 384 deep well plate containing 25 μL of deionized water. 100 μl of 200 nM L-Tryptophan-(indole-d5) in cold 100% methanol are added followed by a 10 minutes centrifugation at 4,000 rpm at 4° C. An additional 75 μL of deionized water are then added and followed by a 10 minutes centrifugation at 4,000 rpm at 4° C. The product of the reaction N′-Formylkynurenine (NFK) is quantified by LCMS and normalized to the L-Tryptophan-(indole-d5) signal. Samples with 0.6% DMSO (0% effect) and a TDO/IDO inhibitor (100% effect) are used as control samples to set the parameters for the non-linear regression necessary for the determination of the half-maximal inhibitory concentration (IC50) for each compound. For each compound concentration the percentage of activity compared to 0% and 100% effect is calculated as average ±STDEV (each concentration measured in duplicate). IC50 values and curves are generated with XLfit software (IDBS) using Dose-Response One Site model 203 (four parameter logistic curve model). When compounds are measured multiple times, mean values are given.

[2] = target: Recombinant human TDO comprising amino acids 19-407 (Homo sapiens (Human), UniProt P48775); test: TDO2 enzymatic assay (TDO inhibitory activity); type: biochemical; settings: 15 nM enzyme, 200 μM L-tryptophan, pH7, 30 min pre-incubation, NFK quantified by LCMS; mean values if measured multiple times; read-out: hTDO activity (IC50 in nM)
Protocol: 2) Testing Compounds for TDO Inhibitory Activity in a TDO2 Enzymatic Assay:
Recombinant human TDO comprising amino acids 19-407 with a N-terminal hexahistidine tag expressed in E. coli and purified to homogeneity is incubated at a final concentration of 15 nM in assay buffer consisting of 75 mM phosphate buffer at pH7 supplemented with 100 μM ascorbic acid, 50 U/ml Catalase, 0.01% BSA, and 0.01% Tween 20 (protocol modified from Seegers et al, JBS 2014). Example compounds are serially diluted in DMSO, further diluted in phosphate buffer, and added to the reaction mixture at final concentrations ranging from 10 μM to 0.5 nM. The final DMSO concentration is 0.6%. Following a pre-incubation of 30 minutes at RT, the reaction is started by the addition of L-tryptophan at a final concentration of 200 μM in assay buffer. After 30 minutes of incubation at RT, 3 μL of the reaction mixture are transferred to a 384 deep well plate containing 25 μL of deionized water. 100 μl of 200 nM L-Tryptophan-(indole-d5) in cold 100% methanol are added followed by a 10 minutes centrifugation at 4,000 rpm at 4° C. An additional 75 μL of deionized water are then added and followed by a 10 minutes centrifugation at 4,000 rpm at 4° C. The product of the reaction N′-Formylkynurenine (NFK) is quantified by LCMS and normalized to the L-Tryptophan-(indole-d5) signal. Samples with 0.6% DMSO (0% effect) and a TDO/IDO inhibitor (100% effect) are used as control samples to set the parameters for the non-linear regression necessary for the determination of the half-maximal inhibitory concentration (IC50) for each compound. For each compound concentration the percentage of activity compared to 0% and 100% effect is calculated as average±STDEV (each concentration measured in duplicate). IC50 values and curves are generated with XLfit software (IDBS) using Dose-Response One Site model 203 (four parameter logistic curve model). When compounds are measured multiple times, mean values are given.

Recombinant human TDO comprising amino acids 19-407, sequence (P48775 19-406 limits assumed): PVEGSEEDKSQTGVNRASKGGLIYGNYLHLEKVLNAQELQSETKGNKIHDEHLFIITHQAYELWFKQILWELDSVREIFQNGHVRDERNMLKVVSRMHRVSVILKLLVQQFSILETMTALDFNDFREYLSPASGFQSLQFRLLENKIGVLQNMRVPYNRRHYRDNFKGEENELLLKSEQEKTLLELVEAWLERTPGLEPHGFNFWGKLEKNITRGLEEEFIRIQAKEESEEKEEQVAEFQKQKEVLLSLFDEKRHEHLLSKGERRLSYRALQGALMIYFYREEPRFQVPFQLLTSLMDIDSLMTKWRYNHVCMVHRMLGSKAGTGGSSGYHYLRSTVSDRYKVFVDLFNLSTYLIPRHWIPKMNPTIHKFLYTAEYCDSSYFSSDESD
Recombinant full-length human IDO1, sequence (P14902 whole entry): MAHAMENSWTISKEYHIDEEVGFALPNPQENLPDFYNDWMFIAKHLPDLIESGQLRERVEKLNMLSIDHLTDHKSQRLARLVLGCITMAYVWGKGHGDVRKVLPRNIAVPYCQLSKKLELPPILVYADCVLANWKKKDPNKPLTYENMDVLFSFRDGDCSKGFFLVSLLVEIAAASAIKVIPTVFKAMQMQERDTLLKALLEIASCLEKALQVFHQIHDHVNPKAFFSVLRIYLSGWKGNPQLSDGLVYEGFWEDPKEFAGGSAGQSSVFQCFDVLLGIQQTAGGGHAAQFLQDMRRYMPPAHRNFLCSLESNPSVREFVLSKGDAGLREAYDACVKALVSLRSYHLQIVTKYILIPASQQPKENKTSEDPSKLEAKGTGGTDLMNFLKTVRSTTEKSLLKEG

Row | IC50 [1] [nM] | IC50 [2] [nM] | Structure (SMILES)
1 | 15.1 | 288 | OC(c1c(C2CC2)sc2cncn12)C1CCCCC1 (racemic) [Example 1, rac-Cyclohexyl(2-cyclopropylimidazo[5,1-b]thiazol-3-yl)methanol]
2 | 134 | 143 | Cc1sc2cncn2c1C(O)C1CCCCC1 (racemic) [Example 6, rac-Cyclohexyl-(2-methyl-imidazo[5,1-b]thiazol-3-yl)-methanol]
3 | 94.2 | 324 | OC(c1c(C2CCC2)sc2cncn12)C1CCCCC1 (racemic) [Example 7, rac-(2-Cyclobutylimidazo[5,1-b]thiazol-3-yl)(cyclohexyl)methanol]
4 | 122 | 256 | OC(CC1CCCCC1)c1c(C2CCC2)sc2cncn12 (racemic) [Example 8, rac-1-(2-Cyclobutylimidazo[5,1-b]thiazol-3-yl)-2-cyclohexylethan-1-ol]
5 | 237 | 193 | OC(c1c(C2CCCC2)sc2cncn12)C1CCCCC1 (racemic) [Example 9, rac-Cyclohexyl(2-cyclopentylimidazo[5,1-b]thiazol-3-yl)methanol]
6 | 384 | 277 | OC(CC1CCCCC1)c1c(C2CCCC2)sc2cncn12 (racemic) [Example 10, rac-2-Cyclohexyl-1-(2-cyclopentylimidazo[5,1-b]thiazol-3-yl)ethan-1-ol]
7 | 895 | 2050 | CC(C)(C)c1sc2cncn2c1C(O)C1CCCCC1 (racemic) [Example 11, rac-(2-(tert-Butyl)imidazo[5,1-b]thiazol-3-yl)(cyclohexyl)methanol]
8 | 895 | 2130 | CC(C)(C)c1sc2cncn2c1C(O)CC1CCCCC1 (racemic) [Example 12, rac-1-(2-(tert-Butyl)imidazo[5,1-b]thiazol-3-yl)-2-cyclohexylethan-1-ol]
9 | 110 | 172 | OC(c1c(Cl)sc2cncn12)C1CCCCC1 (racemic) [Example 13, rac-(2-Chloroimidazo[5,1-b]thiazol-3-yl)(cyclohexyl)methanol]
10 | 28 | 218 | OC(c1c(Br)sc2cncn12)C1CCCCC1 (racemic) [Example 14, rac-(2-Bromoimidazo[5,1-b]thiazol-3-yl)(cyclohexyl)methanol]
11 | 333 | 690 | OC(c1cccs1)c1c(Cl)sc2cncn12 (racemic) [Example 15, rac-(2-Chloro-imidazo[5,1-b]thiazol-3-yl)-thiophen-2-yl-methanol]
12 | 159 | 1210 | OC(CC1CCCCC1)c1c(Cl)sc2cncn12 (racemic) [Example 16, rac-1-(2-Chloro-imidazo[5,1-b]thiazol-3-yl)-2-cyclohexyl-ethanol]
13 | 170 | 301 | OC(c1c(Cl)sc2cncn12)C1CCCCCC1 (racemic) [Example 17, rac-(2-Chloro-imidazo[5,1-b]thiazol-3-yl)-cycloheptyl-methanol]
14 | 1040 | 2660 | OC(c1c(Cl)sc2cncn12)C1CC1 (racemic) [Example 19, rac-(2-Chloro-imidazo[5,1-b]thiazol-3-yl)-cyclopropyl-methanol]
15 | 113 | 470 | OC(CC1CC(F)(F)C1)c1c(C2CC2)sc2cncn12 (racemic) [Example 21, rac-1-(2-Cyclopropyl-imidazo[5,1-b]thiazol-3-yl)-2-(3,3-difluoro-cyclobutyl)-ethanol]
16 | 33.7 | 177 | OC(CC12CCC(CC1)C2)c1c(C2CC2)sc2cncn12 (racemic) [Example 22, rac-2-Bicyclo[2.2.1]hept-1-yl-1-(2-cyclopropyl-imidazo[5,1-b]thiazol-3-yl)-ethanol]
17 | 40.5 | 204 | CC1(CC(O)c2c(C3CC3)sc3cncn23)CCCCC1 (racemic) [Example 23, rac-1-(2-Cyclopropyl-imidazo[5,1-b]thiazol-3-yl)-2-(1-methyl-cyclohexyl)-ethanol]
18 | 25.6 | 394 | OC(CC1CCCC1)c1c(C2CC2)sc2cncn12 (racemic) [Example 24, rac-2-Cyclopentyl-1-(2-cyclopropyl-imidazo[5,1-b]thiazol-3-yl)-ethanol]
19 | 75.2 | 775 | CC1(C)CCC(CC(O)c2c(C3CC3)sc3cncn23)CC1 (racemic) [Example 25, rac-1-(2-Cyclopropyl-imidazo[5,1-b]thiazol-3-yl)-2-(4,4-dimethyl-cyclohexyl)-ethanol]
20 | 25.2 | 387 | CC1(C)CCC(C(O)c2c(C3CC3)sc3cncn23)CC1 (racemic) [Example 26, rac-(2-Cyclopropyl-imidazo[5,1-b]thiazol-3-yl)-(4,4-dimethyl-cyclohexyl)-methanol]
21 | 24.3 | 470 | OC(CC1CCCCCC1)c1c(C2CC2)sc2cncn12 (racemic) [Example 28, rac-2-Cycloheptyl-1-(2-cyclopropyl-imidazo[5,1-b]thiazol-3-yl)-ethanol]
22 | 63.4 | 643 | OC(c1cccs1)c1c(Br)sc2cncn12 (racemic) [Example 32, rac-(2-Bromo-imidazo[5,1-b]thiazol-3-yl)-thiophen-2-yl-methanol]
23 | 55.7 | 1410 | OC(CC1CCCCC1)c1c(Br)sc2cncn12 (racemic) [Example 33, rac-1-(2-Bromo-imidazo[5,1-b]thiazol-3-yl)-2-cyclohexyl-ethanol]
24 | 5.38 | 269 | CC1(C)CC(C(O)c2c(C3CC3)sc3cncn23)C1 (racemic) [Example 36, rac-(2-Cyclopropyl-imidazo[5,1-b]thiazol-3-yl)-(3,3-dimethyl-cyclobutyl)-methanol]
25 | 353 | 2460 | OC(CC1CCC(c2ccccc2)CC1)c1c(C2CC2)sc2cncn12 (racemic) [Example 37, rac-1-(2-Cyclopropyl-imidazo[5,1-b]thiazol-3-yl)-2-(4-phenyl-cyclohexyl)-ethanol]
26 | 41.7 | 300 | CC1(CC(O)c2c(C3CC3)sc3cncn23)CCC1 (racemic) [Example 39, rac-1-(2-Cyclopropyl-imidazo[5,1-b]thiazol-3-yl)-2-(1-methyl-cyclobutyl)-ethanol]
27 | 44.9 | 697 | OC(CC1CCC1)c1c(C2CC2)sc2cncn12 (racemic) [Example 40, rac-2-Cyclobutyl-1-(2-cyclopropyl-imidazo[5,1-b]thiazol-3-yl)-ethanol]
28 | 92.2 | 520 | OC(CC1CCC(C(F)(F)F)CC1)c1c(C2CC2)sc2cncn12 (racemic) [Example 42, rac-1-(2-Cyclopropyl-imidazo[5,1-b]thiazol-3-yl)-2-(4-trifluoromethyl-cyclohexyl)-ethanol]
29 | – | 420 | Cc1cscc1-c1sc2cncn2c1C(O)C1CCCCC1 (racemic) [Example 128, rac-Cyclohexyl-[2-(4-methyl-thiophen-3-yl)-imidazo[5,1-b]thiazol-3-yl]-methanol]
